Assay results as given in paper PMC12811997 (Chemmedchem, 2025).
Converted amounts (≈) assume the structure as drawn. Where a name gives a salt, the structure may show the parent alone. Read-outs that look alike come from different tables or passages of the source.

Key:
[1] = target: SARS‐CoV‐2 RdRp complex (nsp12, nsp7, nsp8) (Severe acute respiratory syndrome coronavirus 2, UniProt P0DTD1); assay: biochemical; assay type: biochemical; conditions: for remaining activity at 10 µM: read-out: RA ± SD (residual activity of RdRp), at 10 μM concentration of screened compounds, AUC with compound / AUC of noninhibited reaction
in vitro = conditions: human
Experimental: Cytotoxicity was evaluated by incubating the same two‐fold serial dilutions of each compound with Calu‐3 cells as above but without the virus. Following 3 days of incubation at 37 °C in 5% CO2, the cell viability was determined by the addition of XTT solution as above. The compound cytotoxic concentrations resulting in a 50% reduction of absorbance (CC50) were calculated from plots of the percentage of absorbance versus log10 of drug concentration as above.

Kinetic solubility = conditions: for kinetic solubility: as restated in Conclusions
SARS‐CoV‐2 = assay: microbe, parasite or virus in culture; assay type: cell-based; conditions: Severe acute respiratory syndrome coronavirus 2; Calu‐3 cells infected with SARS‐CoV‐2; concentration required to reduce viral cytopathic effect by 50%; read-out: EC50

SMILES | remaining activity at 10 µM [1] | CC50 at 3 days (in vitro) | EC50 (SARS‐CoV‐2) | solubility kinetic (Kinetic solubility; kinetic from dmso stock) | also measured
O=C(Nc1cccc(C(F)(F)F)c1)Nc1ccc(Cl)cc1Cl [Compound 9, 1‐(2,4‐Dichlorophenyl)‐3‐(3‐(Trifluoromethyl)Phenyl)Urea] | 64 ± 12% | 6.9 ± 0.94 µM | > 6.9 µM | – | solubility kinetic (Kinetic solubility): < 2 µM
O=C(Nc1cccc(C(F)(F)F)c1)Nc1c(Cl)cccc1Cl [Compound 10, 1‐(2,6‐Dichlorophenyl)‐3‐(3‐(Trifluoromethyl)Phenyl)Urea] | 100% | – | – | – | –
O=C(Nc1ccc(C(F)(F)F)cc1)Nc1cc(Cl)cc(Cl)c1 [Compound 13, 1‐(3,5‐Dichlorophenyl)‐3‐(4‐(Trifluoromethyl)Phenyl)Urea] | 34 ± 14% | 0.29 ± 0.03 µM | > 0.29 µM | < 2.1 µM | –
O=C(Nc1cc(Cl)cc(Cl)c1)Nc1ccccc1C(F)(F)F [Compound 14, 1‐(3,5‐Dichlorophenyl)‐3‐(2‐(Trifluoromethyl)Phenyl)Urea] | 100% | – | – | – | –
O=C(Nc1ccc(C(F)(F)F)nc1)Nc1cc(Cl)cc(Cl)c1 [Compound 15, 1‐(3,5‐Dichlorophenyl)‐3‐(6‐(Trifluoromethyl)Pyridin‐3‐Yl)Urea] | 35 ± 9% | 1.3 ± 0.13 µM | > 1.3 µM | – | –
O=C(Nc1cc(Cl)cc(Cl)c1)Nc1ccc(C(F)(F)F)cn1 [Compound 16, 1‐(3,5‐Dichlorophenyl)‐3‐(5‐(Trifluoromethyl)Pyridin‐2‐Yl)Urea] | 100% | – | – | – | –
O=C(Nc1cc(Cl)cc(Cl)c1)Nc1ccc(C(F)(F)F)nn1 [Compound 17, 1‐(3,5‐Dichlorophenyl)‐3‐(6‐(Trifluoromethyl)Pyridazin‐3‐Yl)Urea] | 68 ± 9% | – | – | – | –
O=C(Nc1cnc(C(F)(F)F)nc1)Nc1cc(Cl)cc(Cl)c1 [Compound 18, 1‐(3,5‐Dichlorophenyl)‐3‐(2‐(Trifluoromethyl)Pyrimid‐5‐Yl)Urea] | 42 ± 10% | 1.1 ± 0.11 µM | > 1.1 µM | 27 ± 6 µM (≈ 9.48 µg/mL) | effect in combination with remdesivir [1]: potentiates the effect of remdesivir; mode of inhibition ([1]; versus ATP, enzymatic study): competitive inhibitor of ATP; kinetic solubility (Kinetic solubility): 27 µM/L
O=C(Nc1cc(Cl)cc(Cl)c1)Nc1cnc(C(F)(F)F)cn1 [Compound 19, 1‐(3,5‐Dichlorophenyl)‐3‐(5‐(Trifluoromethyl)Pyrazin‐2‐Yl)Urea] | 75 ± 8% | – | – | – | –
NC(=O)c1ccc(NC(=O)Nc2cc(Cl)cc(Cl)c2)cc1C(F)(F)F [Compound 24, 4‐(3‐(3,5‐Dichlorophenyl)Ureido)‐2‐(Trifluoromethyl)Benzamide] | ~65% | 14 ± 1 µM | > 14 µM | 32.5 ± 0.8 µM (≈ 12.7 µg/mL) | kinetic solubility (Kinetic solubility): 32.5 µM L^−1
NC(=O)c1ccc(C(F)(F)F)cc1NC(=O)Nc1cc(Cl)cc(Cl)c1 [Compound 25, 2‐(3‐(3,5‐Dichlorophenyl)Ureido)‐4‐(Trifluoromethyl)Benzamide] | 100% | – | – | – | –
NC(=O)c1c(Cl)cc(Cl)cc1NC(=O)Nc1cccc(C(F)(F)F)c1 [Compound 28, 2,4‐Dichloro‐6‐(3‐(3‐(Trifluoromethyl)Phenyl)Ureido)Benzamide] | 100% | – | – | – | –
Cl.O=C(Nc1cc(Cl)cc(Cl)c1)Nc1ccc(CN2CCCC2)c(C(F)(F)F)c1 [Compound 38, 1‐(3,5‐Dichlorophenyl)‐3‐(4‐(Pyrrolidin‐1‐Ylmethyl)‐3‐(Trifluoromethyl)Phenyl)Urea Hydrochloride] | 46 ± 2% | 19 ± 1 µM | > 19 µM | < 2 µM | –
Cl.O=C(Nc1cc(Cl)cc(Cl)c1)Nc1ccc(CN2CCOCC2)c(C(F)(F)F)c1 [Compound 39, 1‐(3,5‐Dichlorophenyl)‐3‐(4‐(Morpholinomethyl)‐3‐(Trifluoromethyl)Phenyl)Urea Hydrochloride] | 36 ± 7% | 8.4 ± 1.1 µM | > 8.4 µM | 4.2 ± 0.3 µM | kinetic solubility (Kinetic solubility): 4.2 µM L^−1
CN1CCN(Cc2ccc(NC(=O)Nc3cc(Cl)cc(Cl)c3)cc2C(F)(F)F)CC1.Cl [Compound 40, 1‐(3,5‐Dichlorophenyl)‐3‐(4‐((4‐Methylpiperazin‐1‐Yl)Methyl)‐3‐(Trifluoromethyl)Phenyl)Urea Hydrochloride] | ~65% | 13 ± 0.8 µM | > 13 µM | 43.5 ± 0.8 µM | kinetic solubility (Kinetic solubility): 43.5 µM L^−1
NCc1ccc(NC(=O)Nc2cc(Cl)cc(Cl)c2)cc1C(F)(F)F [Compound 41, 1‐(4‐(Aminomethyl)‐3‐(Trifluoromethyl)Phenyl)‐3‐(3,5‐Dichlorophenyl)Urea Hydrochloride] | 78 ± 5% | – | – | – | –
Cl.O=C(Nc1cc(Cl)cc(Cl)c1)Nc1ccc(C(F)(F)F)c(CN2CCCC2)c1 [Compound 46, 1‐(3,5‐Dichlorophenyl)‐3‐(3‐(Pyrrolidin‐1‐Ylmethyl)‐4‐(Trifluoromethyl)Phenyl)Urea Hydrochloride] | 67 ± 7% | ~15 µM | > 15 µM | 11.9 ± 0.4 µM | –
Cl.O=C(Nc1cc(Cl)cc(Cl)c1)Nc1ccc(C(F)(F)F)c(CN2CCOCC2)c1 [Compound 47, 1‐(3,5‐Dichlorophenyl)‐3‐(3‐(Morpholinomethyl)‐4‐(Trifluoromethyl)Phenyl)Urea Hydrochloride] | 65 ± 5% | 5.3 ± 0.48 µM | > 5.3 µM | < 2 µM | –
CN1CCN(Cc2cc(NC(=O)Nc3cc(Cl)cc(Cl)c3)ccc2C(F)(F)F)CC1 [Compound 48, 1‐(3,5‐Dichlorophenyl)‐3‐(3‐((4‐Methylpiperazin‐1‐Yl)Methyl)‐4‐(Trifluoromethyl)Phenyl)Urea Hydrochloride] | 100% | – | – | – | –
CN1CCN(Cc2c(Cl)cc(NC(=O)Nc3cccc(C(F)(F)F)c3)cc2Cl)CC1 [Compound 54, 1‐(3,5‐Dichloro‐4‐((4‐Methylpiperazin‐1‐Yl)Methyl)Phenyl)‐3‐(3‐(Trifluoromethyl)Phenyl)Urea Hydrochloride] | 79 ± 5% | – | – | – | –
COCCNCc1ccc(NC(=O)Nc2cc(Cl)cc(Cl)c2)cc1C(F)(F)F [Compound 58, 1‐(3,5‐Dichlorophenyl)‐3‐(4‐(((2‐Methoxyethyl)Amino)Methyl)‐3‐(Trifluoromethyl)Phenyl)Urea Hydrochloride] | 100% | – | – | – | –
O=C(Nc1cc(Cl)cc(Cl)c1)Nc1ccc(CNCCO)c(C(F)(F)F)c1 [Compound 59, 1‐(3,5‐Dichlorophenyl)‐3‐(4‐(((2‐Hydroxyethyl)Amino)Methyl)‐3‐(Trifluoromethyl)Phenyl)Urea Hydrochloride] | 76 ± 11% | – | – | – | –
COC(=O)CNCc1ccc(NC(=O)Nc2cc(Cl)cc(Cl)c2)cc1C(F)(F)F.Cl [Compound 61, Methyl (4‐(3‐(3,5‐Dichlorophenyl)Ureido)‐2‐(Trifluoromethyl)Benzyl)Glycinate Hydrochloride] | 43 ± 8% | 8.4 ± 0.46 µM | > 8.4 µM | 7 ± 0.6 µM | kinetic solubility (Kinetic solubility): 21 µM L^−1; increase in kinetic solubility compared with compound 39 (Kinetic solubility; relative to compound 39): 1.7 fold
O=C(O)CNCc1ccc(NC(=O)Nc2cc(Cl)cc(Cl)c2)cc1C(F)(F)F [Compound 62, Lithium (4‐(3‐(3,5‐Dichlorophenyl)Ureido)‐2‐(Trifluoromethyl)Benzyl)Glycinate] | 70 ± 10% | – | – | – | –
